Source: patent US10206394B2, “Herbicidal compounds” (Syngenta Participations AG, priority 2014, dated 2019)
Read-outs that look alike come from different tables or passages of the source.

Experiments:
Assay in all cases: Glasshouse assay for herbicidal activity (pre- and post-emergence), percentage phytotoxicity
Assay type in all cases: in vivo
Avena fatua (AVEFA) = settings: Avena fatua, Rate 250 g/ha, 100%=total damage, 0%=no damage
Experimental: (§1) Test—Glasshouse Assay for Herbicidal Activity
(§2) Seeds of a variety of monocotyledonous and dicotyledonous test plants are sown in standard soil in pots. The plants are cultivated for one day (for pre-emergence (PRE)) or for about 12 days (for post-emergence (POST)) under controlled conditions in a glasshouse (warm climate species at 24/18° C., cool climate species at 20/16° C., both at day/night; 16 hours light; 65% humidity).
(§3) The test plants are then grown on, in a glasshouse (greenhouse) under controlled conditions (warm climate species at 24/18° C., cool climate species at 20/16° C., both at day/night; 16 hours light; 65% humidity) and are watered twice daily. 15 days after application of the test herbicide (15 DAA) (for post-emergence), and 20 days after application of the test herbicide (20 DAA) (for pre-emergence), the test plants are evaluated visually, and an assessed percentage phytotoxicity score is given for each herbicidal application on each plant species (with 100%=total damage to plant; 0%=no damage to plant).
(§4) The plant species tested are as follows: Alopecurus myosuroides (ALOMY), Avena fatua (AVEFA), Lolium perenne (LOLPE), Echinochloa crus-galli (ECHCG).

[1] = tested on: Echinochloa crus-galli (ECHCG); settings: Echinochloa crus-galli, Rate 250 g/ha, 100%=total damage, 0%=no damage
Experimental: as §1, §2, §3, §4

Lolium perenne (LOLPE) = settings: Lolium perenne, Rate 250 g/ha, 100%=total damage, 0%=no damage
Experimental: as §1, §2, §3, §4

[2] = tested on: Alopecurus myosuroides (ALOMY); settings: Alopecurus myosuroides, Rate 250 g/ha, 100%=total damage, 0%=no damage
Experimental: as §1, §2, §3, §4

[3] = post-emergence, 360 h, post-emergence, assessed visually 15 DAA, read-out: Post-emergence herbicidal activity (percentage phytotoxicity) AVEFA POST
[4] = pre-emergence, 480 h, pre-emergence, assessed visually 20 DAA, read-out: Pre-emergence herbicidal activity (percentage phytotoxicity) AVEFA PRE
[5] = post-emergence, 360 h, post-emergence, assessed visually 15 DAA, read-out: Post-emergence herbicidal activity (percentage phytotoxicity) ECHCG POST
[6] = pre-emergence, 480 h, pre-emergence, assessed visually 20 DAA, read-out: Pre-emergence herbicidal activity (percentage phytotoxicity) ECHCG PRE
[7] = post-emergence, 360 h, post-emergence, assessed visually 15 DAA, read-out: Post-emergence herbicidal activity (percentage phytotoxicity) LOLPE POST
[8] = pre-emergence, 480 h, pre-emergence, assessed visually 20 DAA, read-out: Pre-emergence herbicidal activity (percentage phytotoxicity) LOLPE PRE
[9] = post-emergence, 360 h, post-emergence, assessed visually 15 DAA, read-out: Post-emergence herbicidal activity (percentage phytotoxicity) ALOMY POST
[10] = pre-emergence, 480 h, pre-emergence, assessed visually 20 DAA, read-out: Pre-emergence herbicidal activity (percentage phytotoxicity) ALOMY PRE

Row | SMILES | pest or weed control at 250 g/ha (Avena fatua (AVEFA); [3]) [%] | pest or weed control at 250 g/ha (Avena fatua (AVEFA); [4]) [%] | pest or weed control at 250 g/ha [1, 5] [%] | pest or weed control at 250 g/ha [1, 6] [%] | pest or weed control at 250 g/ha (Lolium perenne (LOLPE); [7]) [%] | pest or weed control at 250 g/ha (Lolium perenne (LOLPE); [8]) [%] | pest or weed control at 250 g/ha [2, 9] [%] | pest or weed control at 250 g/ha [2, 10] [%]
1 | Cc1cc(C)c(C2C(=O)CC(CC(=O)NCc3ncc(C)s3)C2=O)c(C)c1 (centres unmarked) [Compound A105] | 0 | 20 | 60 | 70 | 70 | 70 | 80 | 80
2 | Cc1cc(C)c(C2C(=O)CC(CC(=O)NC3CCc4ccccc43)C2=O)c(C)c1 (centres unmarked) [Compound A106] | 0 | 0 | 20 | 20 | 70 | 70 | 30 | 0
3 | Cc1cc(C)c(C2C(=O)CC(CC(=O)NCc3ncccc3Cl)C2=O)c(C)c1 (centres unmarked) [Compound A107] | 90 | 10 | 70 | 80 | 80 | 90 | 80 | 80
4 | Cc1cc(C)c(C2C(=O)CC(CC(=O)NCc3ccccc3C#N)C2=O)c(C)c1 (centres unmarked) [Compound A108] | 60 | 0 | 20 | 30 | 60 | 80 | 0 | 0
5 | Cc1cc(C)c(C2C(=O)CC(CC(=O)NCc3ncc(C(F)(F)F)cc3Cl)C2=O)c(C)c1 (centres unmarked) [Compound A109] | 80 | 50 | 80 | 80 | 80 | 90 | 90 | 90
6 | Cc1cc(C)c(C2C(=O)CC(CC(=O)NCc3ccccc3F)C2=O)c(C)c1 (centres unmarked) [Compound A110] | 70 | 50 | 80 | 90 | 80 | 100 | 60 | 70
7 | C=CCCNC(=O)CC1CC(=O)C(c2c(C)cc(-c3ncc(Cl)cc3F)cc2C)C1=O (centres unmarked) [Compound A111] | 100 | 90 | 100 | 100 | 100 | 100 | 100 | 90
8 | COCC#CC(C)(C)NC(=O)CC1CC(=O)C(c2c(C)cc(-c3ncc(Cl)cc3F)cc2C)C1=O (centres unmarked) [Compound A112] | 100 | 90 | 100 | 100 | 100 | 100 | 90 | 80
9 | Cc1cc(-c2ncc(Cl)cc2F)cc(C)c1C1C(=O)CC(CC(=O)NCc2ncc(C(F)(F)F)cc2Cl)C1=O (centres unmarked) [Compound A113] | 100 | 90 | 100 | 100 | 100 | 90 | 100 | 80
10 | Cc1cc(-c2ncc(Cl)cc2F)cc(C)c1C1C(=O)CC(CC(=O)NCc2ncccc2Cl)C1=O (centres unmarked) [Compound A114] | 100 | 90 | 100 | 100 | 100 | 90 | 100 | 90
